The values that follow come from patent US9802885B2, “Substituted cyclohexane compounds” (TAKASAGO INTERNATIONAL CORPORATION (USA), priority 2011, dated 2017).

Assay [1] concerns trained evaluators. Nature of the assay: Rated warming level of hot and spicy flavor composition in water, swish and spit (Example 17). It counts as in vivo. Here is the method:
Each evaluator was asked to rate the warming level in the mouth on a scale of 1-9 over a 5 minute period after swishing & spitting the sample.

For assay [2], the system named is trained evaluators. In words: Enhancement of the warming effect of vanillyl butyl ether (VBE), heat intensity and preference (Example 20). It counts as in vivo. The protocol: Compound 1 was tested for its synergistic enhancement of the warming effect from pungent compound vanillyl butyl ether (VBE). A stock solution of 1% VBE in ethanol was prepared. This stock solution was then added at 0.2% in water to produce a 20 ppm tasting solution (Control). To subsequent 20 ppm tasting solutions was added 2.5 ppm of Compound 1 (Formula G) and 2.5 ppm WS-3 (Formula H). Ten trained evaluators were asked to rate heat intensity in the mouth and rank the three samples for preference after swishing and spitting the sample.

A short description of assay [3]: Organoleptic properties of the compounds of Formulas I, II and III (Tables 1-3). As to conditions: in vivo. From the text:
For example, the compounds of the presently disclosed subject matter impart cooling, warming, burning, tingling, numbing, salivating, musty, bitter, and/or astringent sensation. In addition, the compounds of the presently disclosed subject matter can impart tropical, fruity (e.g., berry), minty, phenolic, and vegetable (e.g., peppery) notes as well as creaminess and sweetness to flavor ingredients. The organoleptic properties of certain compounds of Formulas I, II, and III are described in Tables 1, 2, and 3, respectively.

Assay [4] has as its system trained evaluators. Nature of the assay: Tasting of wasabi-type flavor composition in water (Example 18). It is filed as in vivo. From the text:
Formula C was selected as being preferred by 7 out of the 8 evaluators.

Assay [5] deals with expertly trained evaluators. Nature of the assay: Rated cooling intensity of mouth-rinse composition (Example 21). It counts as in vivo. Here is the method: Compound 8 was tested in the following mouth-rinse composition Formula J and evaluated over a 20 minute period by five expertly trained evaluators, compared to two other mint flavor compositions, a Control and Formula K that contains WS-3 as shown below. The compositions were each dissolved at 0.1% in the following mouth-rinse base (50 ppm dosage of Compound 8 & WS-3 respectively). The evaluators were asked to rate cooling intensity on a scale of 1-9 in the mouth at 0, 0.5, 1, 5, 10, and 20 minutes.

In assay [6] the test system is expertly trained evaluators. In words: Tasting of mouthwatering composition in water (Example 19). It is filed as in vivo. As to conditions: 0.5% w/w Compound 10, 0.05% in water (2.5 ppm).
The conditions of assay [7]: generally known; cited from earlier work.

“Also recorded” adds a separate entry of the source.

For the compound `C=C(C)[C@@H]1CC[C@@H](C)C[C@H]1C(=O)NCC` [Compound 1, (1R,2R,5R)—N-ethyl-5-methyl-2-(prop-1-en-2-yl)cyclohexanecarboxamide], the “heat/warming perception compared to control Formula B” value with trained evaluators [1] (0.5% w/w Compound 1) is given as “enhance the initial heat perception”; with trained evaluators [1] (0.5% w/w Compound 1, listed as N-ethyl-5-methyl-2-(prop-1-en-2-yl)cyclohexanecarboxamide), “enhances the warming perception”. Further, the “enhancement of the warming effect of pungent compounds compared to WS-3” value in the assay on trained evaluators [2] is recorded as “enhances the warming effect of pungent compounds much better”. Also, the “Organoleptic Properties” value in assay [3] is “cooling, tingling, and numbing sensation”. For `C=C(C)[C@@H]1CC[C@@H](C)C[C@H]1C(=O)NC1CC1` [Compound 2, (1R,2R,5R)—N-cyclopropyl-5-methyl-2-(prop-1-en-2-yl)cyclohexanecarboxamide], in assay [3], the “Organoleptic Properties” value is “slight cooling, salivating”.

On to `C=C(C)[C@@H]1CC[C@@H](C)C[C@H]1C(=O)NC(C)C` [Compound 3, (1R,2R,5R)—N-isopropyl-5-methyl-2-(prop-1-en-2-yl)cyclohexanecarboxamide], for which the “Organoleptic Properties” value in assay [3] is reported as “slight cooling”. On the same count and under the same terms, the value for `C=C(C)[C@@H]1CC[C@@H](C)C[C@H]1C(=O)NC(C)(C)C` [Compound 4, (1R,2R,5R)—N-(tert-butyl)-5-methyl-2-(prop-1-en-2-yl)cyclohexanecarboxamide] was “slight burn, warming,; also recorded: irritation”; that for `C=C(C)[C@@H]1CC[C@@H](C)C[C@H]1C(=O)NC(C)CC` (stereo partly drawn) [Compound 5, (1R,2R,5R)—N-(sec-butyl)-5-methyl-2-(prop-1-en-2-yl)cyclohexanecarboxamide] was “bitter, cooling”.

Consider `C=C(C)[C@@H]1CC[C@@H](C)C[C@H]1C(=O)NCC(=O)OCC` [Compound 6, (1R,2R,5R)-ethyl 2-(5-methyl-2-(prop-1-en-2-yl)cyclohexanecarboxamido)acetate], for which the “Organoleptic Properties” value in assay [3] is listed as “bitter, cooling, irritation”. Consider `C=C(C)[C@@H]1CC[C@@H](C)C[C@H]1C(=O)Nc1ccc(OC)cc1` [Compound 7, (1R,2R,5R)—N-(4-methoxyphenyl)-5-methyl-2-(prop-1-en-2-yl)cyclohexanecarboxamide], for which the “Organoleptic Properties” value in assay [3] is listed as “musty, astringent, slight cooling”. Take `C=C(C)[C@@H]1CC[C@@H](C)C[C@H]1C(=O)Nc1ccc(CC#N)cc1` [Compound 8, (1R,2R,5R)—N-(4-(cyanomethyl)phenyl)-5-methyl-2-(prop-1-en-2-yl)cyclohexanecarboxamide]: the “burning sensation and character compared to control Formula D” value was “more intense and lingering burning sensation” in the assay with trained evaluators [4] (0.5% w/w Compound 8); “improved lingering burning sensation” in the assay with trained evaluators [4] (0.5% w/w Compound 8, listed as N-(4-(cyanomethyl)phenyl)-5-methyl-2-(prop-1-en-2-yl)cyclohexanecarboxamide). For the same compound, in assay [5], the “cooling perception of the mouth-rinse composition compared to Control and WS-3 (Formula K)” value was “enhances and lengthens the cooling of a mouth-rinse composition better than WS-3”. Also, the “Organoleptic Properties” value in assay [3] is given as “phenolic, strong burning”.

As for `C=C(C)[C@@H]1CC[C@@H](C)C[C@H]1OC(=O)CCC(=O)O` [Compound 9, (1R,2S,5R)-4-((−5-methyl-2-(prop-1-en-2-yl)cyclohexyl)oxy)-4-oxobutanoic acid], the “Organoleptic Properties” value in assay [3] is listed as “fruity, chemical, slight; also recorded: cooling/burn”.

Turning to `C=C(C)[C@@H]1CC[C@@H](C)C[C@H]1OC(=O)CCCC(=O)O` [Compound 10, (1R,2S,5R)-5-((−5-methyl-2-(prop-1-en-2-yl)cyclohexyl)oxy)-5-oxopentanoic acid], the “mouthwatering effect compared to control Formula F” value in assay [6] is “extended cooling and increased astringency”. The “Organoleptic Properties” value in assay [3] is “sweet, fruity, slight; also recorded: cooling”. Take `C=C(C)[C@@H]1CC[C@@H](C)C[C@H]1OC(=O)C(C)O` (stereo partly drawn) [Compound 11, (1R,2S,5R)-5-methyl-2-(prop-1-en-2-yl)cyclohexyl 2-hydroxypropanoate]: the “Organoleptic Properties” value in assay [3] is recorded as “minty, bitter, cooling”. On to `C=C(C)[C@@H]1CC[C@@H](C)C[C@H]1OC(=O)CC(C)=O` [Compound 12, (1R,2S,5R)-5-methyl-2-(prop-1-en-2-yl)cyclohexyl 3-oxobutanoate], for which, in assay [3], the “Organoleptic Properties” value is reported as “bitter, fruity”. On the same count and under the same terms, with `C=C(C)[C@@H]1CC[C@@H](C)C[C@H]1OC(=O)CC(C)O` (stereo partly drawn) [Compound 13, (1R,2S,5R)-5-methyl-2-(prop-1-en-2-yl)cyclohexyl 3-hydroxybutanoate] the entry was “bitter, mild peppery”; with `C=C(C)[C@@H]1CC[C@@H](C)C[C@H]1OCC(=O)O` [Compound 14, (1R,2S,5R)-2-((5-methyl-2-(prop-1-en-2-yl)cyclohexyl)oxy)acetic acid], “creamy; also recorded: fruity,”; with `C=C(C)[C@@H]1CC[C@@H](C)C[C@H]1OCC(=O)NCC(C)C` [Compound 15, (1R,2S,5R)—N-isobutyl-2-((5-methyl-2-(prop-1-en-2-yl)cyclohexyl)oxy)acetamide], “bitter,; also recorded: tingle/; also recorded: burning”. Take `CCNC(=O)C1CC(C)CCC1C(C)C` (centres unmarked) [WS-3, N-ethyl-5-methyl-2-isopropylcyclohexanecarboxamide]: in assay [7], the “sensation provided by menthyl analog” value was “clean cool”.
